Test results taken from the CheMixHub viscosity set.
± gives the uncertainty stated by the source.

Assay: xn = mol fraction of the nth substance listed

## COc1ccc(C=O)cc1 + Cc1cc(C)cc(C)c1
303.15 K, 101 kPa, x1 = 0.1142
  viscosity: 0.686 ± 0.19 mPa·s
303.15 K, 101 kPa, x1 = 0.2248
  viscosity: 0.766 ± 0.2 mPa·s
303.15 K, 101 kPa, x1 = 0.3321
  viscosity: 0.825 ± 0.22 mPa·s
303.15 K, 101 kPa, x1 = 0.4361
  viscosity: 1.044 ± 0.26 mPa·s
303.15 K, 101 kPa, x1 = 0.537
  viscosity: 1.283 ± 0.32 mPa·s
303.15 K, 101 kPa, x1 = 0.635
  viscosity: 1.581 ± 0.38 mPa·s
303.15 K, 101 kPa, x1 = 0.7302
  viscosity: 1.77 ± 0.42 mPa·s
303.15 K, 101 kPa, x1 = 0.8227
  viscosity: 2.826 ± 0.66 mPa·s
303.15 K, 101 kPa, x1 = 0.9126
  viscosity: 2.963 ± 0.68 mPa·s
308.15 K, 101 kPa, x1 = 0.1142
  viscosity: 0.645 ± 0.18 mPa·s
308.15 K, 101 kPa, x1 = 0.2248
  viscosity: 0.713 ± 0.19 mPa·s
308.15 K, 101 kPa, x1 = 0.3321
  viscosity: 0.7707 ± 0.2 mPa·s
308.15 K, 101 kPa, x1 = 0.4361
  viscosity: 0.96 ± 0.25 mPa·s
308.15 K, 101 kPa, x1 = 0.537
  viscosity: 1.148 ± 0.29 mPa·s
308.15 K, 101 kPa, x1 = 0.635
  viscosity: 1.395 ± 0.34 mPa·s
308.15 K, 101 kPa, x1 = 0.7302
  viscosity: 1.582 ± 0.38 mPa·s
308.15 K, 101 kPa, x1 = 0.8227
  viscosity: 2.452 ± 0.57 mPa·s
308.15 K, 101 kPa, x1 = 0.9126
  viscosity: 2.665 ± 0.62 mPa·s
313.15 K, 101 kPa, x1 = 0.1142
  viscosity: 0.438 ± 0.13 mPa·s
313.15 K, 101 kPa, x1 = 0.2248
  viscosity: 0.487 ± 0.14 mPa·s
313.15 K, 101 kPa, x1 = 0.3321
  viscosity: 0.547 ± 0.15 mPa·s
313.15 K, 101 kPa, x1 = 0.4361
  viscosity: 0.676 ± 0.18 mPa·s
313.15 K, 101 kPa, x1 = 0.537
  viscosity: 0.825 ± 0.22 mPa·s
313.15 K, 101 kPa, x1 = 0.635
  viscosity: 1 ± 0.26 mPa·s
313.15 K, 101 kPa, x1 = 0.7302
  viscosity: 1.094 ± 0.28 mPa·s
313.15 K, 101 kPa, x1 = 0.8227
  viscosity: 1.859 ± 0.44 mPa·s
313.15 K, 101 kPa, x1 = 0.9126
  viscosity: 1.969 ± 0.47 mPa·s
318.15 K, 101 kPa, x1 = 0.1142
  viscosity: 0.392 ± 0.12 mPa·s
318.15 K, 101 kPa, x1 = 0.2248
  viscosity: 0.435 ± 0.13 mPa·s
318.15 K, 101 kPa, x1 = 0.3321
  viscosity: 0.5 ± 0.14 mPa·s
318.15 K, 101 kPa, x1 = 0.4361
  viscosity: 0.614 ± 0.17 mPa·s
318.15 K, 101 kPa, x1 = 0.537
  viscosity: 0.733 ± 0.2 mPa·s
318.15 K, 101 kPa, x1 = 0.635
  viscosity: 0.9 ± 0.23 mPa·s
318.15 K, 101 kPa, x1 = 0.7302
  viscosity: 1 ± 0.25 mPa·s
318.15 K, 101 kPa, x1 = 0.8227
  viscosity: 1.517 ± 0.37 mPa·s
318.15 K, 101 kPa, x1 = 0.9126
  viscosity: 1.713 ± 0.41 mPa·s

## Clc1cccc(Cl)c1 + CCCCCC
298.15 K, 100 kPa, x1 = 0.0593
  viscosity: 0.327 ± 0.007 mPa·s
298.15 K, 100 kPa, x1 = 0.1575
  viscosity: 0.36 ± 0.008 mPa·s
298.15 K, 100 kPa, x1 = 0.255
  viscosity: 0.4 ± 0.009 mPa·s
298.15 K, 100 kPa, x1 = 0.3473
  viscosity: 0.446 ± 0.01 mPa·s
298.15 K, 100 kPa, x1 = 0.4204
  viscosity: 0.487 ± 0.01 mPa·s
298.15 K, 100 kPa, x1 = 0.48
  viscosity: 0.524 ± 0.011 mPa·s
298.15 K, 100 kPa, x1 = 0.5322
  viscosity: 0.56 ± 0.012 mPa·s
298.15 K, 100 kPa, x1 = 0.5704
  viscosity: 0.588 ± 0.013 mPa·s
298.15 K, 100 kPa, x1 = 0.6295
  viscosity: 0.634 ± 0.014 mPa·s
298.15 K, 100 kPa, x1 = 0.6705
  viscosity: 0.669 ± 0.014 mPa·s
298.15 K, 100 kPa, x1 = 0.7263
  viscosity: 0.719 ± 0.015 mPa·s
298.15 K, 100 kPa, x1 = 0.8186
  viscosity: 0.81 ± 0.017 mPa·s
298.15 K, 100 kPa, x1 = 0.9465
  viscosity: 0.952 ± 0.02 mPa·s
308.15 K, 100 kPa, x1 = 0.0593
  viscosity: 0.301 ± 0.006 mPa·s
308.15 K, 100 kPa, x1 = 0.1575
  viscosity: 0.331 ± 0.007 mPa·s
308.15 K, 100 kPa, x1 = 0.255
  viscosity: 0.368 ± 0.008 mPa·s
308.15 K, 100 kPa, x1 = 0.3473
  viscosity: 0.407 ± 0.009 mPa·s
308.15 K, 100 kPa, x1 = 0.4204
  viscosity: 0.442 ± 0.009 mPa·s
308.15 K, 100 kPa, x1 = 0.48
  viscosity: 0.473 ± 0.01 mPa·s
308.15 K, 100 kPa, x1 = 0.5322
  viscosity: 0.504 ± 0.011 mPa·s
308.15 K, 100 kPa, x1 = 0.5704
  viscosity: 0.528 ± 0.011 mPa·s
308.15 K, 100 kPa, x1 = 0.6295
  viscosity: 0.568 ± 0.012 mPa·s
308.15 K, 100 kPa, x1 = 0.6705
  viscosity: 0.598 ± 0.013 mPa·s
308.15 K, 100 kPa, x1 = 0.7263
  viscosity: 0.642 ± 0.014 mPa·s
308.15 K, 100 kPa, x1 = 0.8186
  viscosity: 0.724 ± 0.015 mPa·s
308.15 K, 100 kPa, x1 = 0.9465
  viscosity: 0.851 ± 0.018 mPa·s
318.15 K, 100 kPa, x1 = 0.0593
  viscosity: 0.282 ± 0.006 mPa·s
318.15 K, 100 kPa, x1 = 0.1575
  viscosity: 0.309 ± 0.007 mPa·s
318.15 K, 100 kPa, x1 = 0.255
  viscosity: 0.338 ± 0.007 mPa·s
318.15 K, 100 kPa, x1 = 0.3473
  viscosity: 0.37 ± 0.008 mPa·s
318.15 K, 100 kPa, x1 = 0.4204
  viscosity: 0.4 ± 0.009 mPa·s
318.15 K, 100 kPa, x1 = 0.48
  viscosity: 0.427 ± 0.009 mPa·s
318.15 K, 100 kPa, x1 = 0.5322
  viscosity: 0.454 ± 0.01 mPa·s
318.15 K, 100 kPa, x1 = 0.5704
  viscosity: 0.475 ± 0.01 mPa·s
318.15 K, 100 kPa, x1 = 0.6295
  viscosity: 0.51 ± 0.011 mPa·s
318.15 K, 100 kPa, x1 = 0.6705
  viscosity: 0.537 ± 0.011 mPa·s
318.15 K, 100 kPa, x1 = 0.7263
  viscosity: 0.577 ± 0.012 mPa·s
318.15 K, 100 kPa, x1 = 0.8186
  viscosity: 0.649 ± 0.014 mPa·s
318.15 K, 100 kPa, x1 = 0.9465
  viscosity: 0.76 ± 0.016 mPa·s
